In patent publication US20120027720A1, “PEPTIDE CONJUGATES” (priority 2008, published 2012):
Where no end group is shown, it is not given here. [ ]: non-standard residue; d: D form. Met(O) = CS(=O)CC[C@H](N)C(=O)O; AllylGly = C=CC[C@H](N)C(=O)O; Tle = CC(C)(C)[C@H](N)C(=O)O; hSer = N[C@@H](CCO)C(=O)O

Key:
Assay type in all cases: cell-based
CaCo2 monolayers [1] = assay: Trans Epithelial Electric Resistance (TEER) across cell monolayer; design: key to Reduced TEER: + indicates an enhancement of the permeability of the tight junctions were observed; − indicates no enhancement of permeability was observed; conditions: Caco-2 monolayer
Outline: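 Caco-2 cells, passage 40-60, grown 21-28 days on Transwell filters, equilibrated 30 min at 37° C in MHBSS pH 7.4. Test compound with Lucifer Yellow applied apically (n=3), incubated at 37° C with 50 RPM shaking; TEER measured at baseline and at 30, 60, 120 and 180 min.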

CaCo2 monolayers [2] = assay: Epithelial flux of Lucifer Yellow through cell monolayer; design: key to Enhanced LY permeability: + indicates an enhancement of the permeability of the tight junctions were observed; − indicates no enhancement of permeability was observed; conditions: Lucifer Yellow flux, Caco-2 monolayer
Outline: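 Caco-2 cells (passage 40-60) grown 21-28 days on Transwell filters, equilibrated 30 min at 37 °C in HBSS-HEPES pH 7.4; Lucifer Yellow with test compound applied apically, n=3 filters. Basolateral samples at 60, 120, 180 min read by fluorescence at 485/535 nm against standard curve; TEER also measured.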

IEC6 cells = assay: Real-Time Cell Electronic Sensing (RT-CES, ACEA) assay of cell morphology change; design: key: + indicates an enhancement of the permeability of the tight junctions were observed; − indicates no enhancement of permeability was observed; conditions: peptide at 5 mg/mL
Text: Agonists of tight junctions can be identified by their ability to induce changes in morphology of cells in a monolayer of cells that comprise tight junctions. Such changes in the morphology of IEC6 cells may be measured using a Real-Time Cell Electronic Sensing protocol as described below.
Tight junction agonists can be identified using the following method an used in peptide conjugates of the invention:
Materials: cells: IEC6 passage 30-50, medium: DMEM 10% no calcium no magnesium, foetal bovine serum 0.1 unit per ml bovine insulin, buffers: phosphate buffered saline (PBS) no calcium no magnesium, trypsin: 0.25% porcine trypsin in HBSS no calcium no magnesium, flasks: 100×20 mm Tissue culture dish Falcon, plates: 16× E-Plate, machine: RT-CES™ 16× system (ACEA Biosciences, Inc., San Diego, Calif.)
Wash a 75 cm^2 flask of confluent IEC6 cells twice with 25 ml of PBS.
Add 2.5 ml of trypsin to the flask and place back in the incubator at 37° C.
Wash cells from the surface of the flask with 10 ml of serum containing media to quench the trypsin.
Pellet the cells by centrifugation at 1500 rpm for 5 minutes aspirate the media.
Resuspend the cell pellet in 10 ml of serum free media and centrifuge at 1500 rpm for 5 minutes aspirate the media and repeat for a total of 5 washes.
Take 100 μl of cells and mix with 100 μl of trypan blue.
Count the cells four times and use the average cell concentration.
Dilute the cells to 1×10^6 per ml in serum free media.
Add 100 μl of serum free media to each well of the ACEA plates to be used.
Insert the ACEA plate and press scan.
Run step 1 of the program to measure background.
Add 50 μl of cells to each well of the ACEA plate tap each slide of the plate 10 times and place the cells on the bench for 15 minutes to allow the cells to settle.
Insert the ACEA plate and run the scan step to check connections and run step 2-1 and 2-2 overnight.
Step 2-1 sample every 2 minutes 30 times.
Step 2-2 sample every 15 minutes 100 times.
The cell indices should be between 6-10 after the overnight run and should have reached a plateau.
Remove 100 μl of media carefully from each well.
Make up the compounds to be tested so that 50 μl contains 2× the desired final concentration.
Add 50 μl of compounds to the designated wells.
Scan the plate to check connections.
Step 3-1 sample every 2 minutes 30 times.
Step 3-2 sample every 15 minutes 100 times.

| Substance | Reduced TEER (CaCo2 monolayers [1]) | Enhanced LY permeability (CaCo2 monolayers [2]) | ACEA 5 mg/mL (IEC6 cells) |
| --- | --- | --- | --- |
| 7 (FCIGRA; not fully specified; printed as Phe-Cys-Ile-Gly-Arg-Ala) [compound 7] | + | + | + |
| 2 (ACIGRL; not fully specified; printed as Ala-Cys-Ile-Gly-Arg-Leu) [compound 2] | − | − | + |
| 3 (FAIGRL; not fully specified; printed as Phe-Ala-Ile-Gly-Arg-Leu) [compound 3] | − | − | − |
| 22 (L[dR]G[dI][dC][dF]; not fully specified; printed as Leu-D-Arg-Gly-D-Ile-D-Cys-D-Phe) [compound 22] | + | + | − |
| 25 (L[dR]GICF; not fully specified; printed as Leu-D-Arg-Gly-Ile-Cys-Phe) [compound 25] | − | − | + |
| 10 (FCIGR; also: peptide conjugate) [compound 10] | + | + | + |
| 33 ([dF]C[dI]G[dR][dL]; not fully specified; printed as D-Phe-Cys-D-Ile-Gly-D-Arg-D-Leu) [compound 33] | − | − | + |
| 17 ([dL][dR]G[dI][dC][dF]; also: peptide conjugate) [compound 17] | + | + | − |
| 23 (LRGICF; not fully specified; printed as Leu-Arg-Gly-Ile-Cys-Phe) [compound 23] | + | + | − |
| 13 (F[dC]IGRL; also: peptide conjugate) [compound 13] | + | + | + |
| 16 (FCIGR[dL]; also: peptide conjugate) [compound 16] | − | − | − |
| 6 (FCIGAL; not fully specified; printed as Phe-Cys-Ile-Gly-Ala-Leu) [compound 6] | − | − | + |
| 5 (FCIARL; not fully specified; printed as Phe-Cys-Ile-Ala-Arg-Leu) [compound 5] | − | − | − |
| 11 (FCIG; also: peptide conjugate) [compound 11] | − |  | + |
| 32 ([dF][dC]IG[dR][dL]; not fully specified; printed as D-Phe-D-Cys-Ile-Gly-D-Arg-D-Leu) [compound 32] | + | + | − |
| 125 (FLIGRL-NH2; also: peptide conjugate) [compound 125] | + | + |  |
| 211 (F[AllylGly]AGRL-NH2; N-terminus assumed; SMILES C=CC[C@H](NC(=O)[C@@H](N)Cc1ccccc1)C(=O)N[C@@H](C)C(=O)NCC(=O)N[C@@H](CCCNC(=N)N)C(=O)N[C@@H](CC(C)C)C(N)=O) [compound 211] | + | + |  |
| 8 (CIGRL; not fully specified; printed as Cys-Ile-Gly-Arg-Leu) [compound 8] | − | − | − |

| Substance | Reduced TEER (CaCo2 monolayers [1]) | Enhanced LY permeability (CaCo2 monolayers [2]) | ACEA 5 mg/mL (IEC6 cells) |
| --- | --- | --- | --- |
| 116 (FMIGRL; also: peptide conjugate) [compound 116] | − | − |  |
| 133 (FYIGRL; also: peptide conjugate) [compound 133] | − | − |  |
| 15 (FCIG[dR]L; also: peptide conjugate) [compound 15] | − | − | + |
| 171 (Ac-F[hSer]IGRL-NH2; also: peptide conjugate) [compound 171] | − | − |  |
| 30 ([dF][dC][dI]G[dR]L; not fully specified) [compound 30] | + | + |  |
| 143 (H-F[Met(O)]IGRL-OH; not fully specified; also: peptide conjugate, Xaa: 'may be' L-methionine-sulfoxide) [compound 143] | − | − |  |
| 97 (H-FCIGR[Tle]-OH; SMILES CC[C@H](C)[C@H](NC(=O)[C@H](CS)NC(=O)[C@@H](N)Cc1ccccc1)C(=O)NCC(=O)N[C@@H](CCCNC(=N)N)C(=O)N[C@H](C(=O)O)C(C)(C)C) [compound 97] | + | + |  |
| 201 (R[AllylGly]IGRL-NH2; N-terminus assumed; SMILES C=CC[C@H](NC(=O)[C@@H](N)CCCNC(=N)N)C(=O)N[C@H](C(=O)NCC(=O)N[C@@H](CCCNC(=N)N)C(=O)N[C@@H](CC(C)C)C(N)=O)[C@@H](C)CC) [compound 201] | − | − |  |
| 166 (LRG[dI]LF-NH2; also: peptide conjugate) [compound 166] | − | − |  |
| 128 (FGIGRL; also: peptide conjugate) [compound 128] | − | + |  |
| 20 ([dL][dR]GI[dC][dF]; not fully specified; printed as D-Leu-D-Arg-Gly-Ile-D-Cys-D-Phe) [compound 20] | + | + |  |
| 138 (LRGILF-NH2; also: peptide conjugate) [compound 138] | + | + |  |
| 207 (F[AllylGly]SGRL-NH2; N-terminus assumed; SMILES C=CC[C@H](NC(=O)[C@@H](N)Cc1ccccc1)C(=O)N[C@@H](CO)C(=O)NCC(=O)N[C@@H](CCCNC(=N)N)C(=O)N[C@@H](CC(C)C)C(N)=O) [compound 207] | + | + |  |
| 195 (D[AllylGly]IGRL-NH2; N-terminus assumed; SMILES C=CC[C@H](NC(=O)[C@@H](N)CC(=O)O)C(=O)N[C@H](C(=O)NCC(=O)N[C@@H](CCCNC(=N)N)C(=O)N[C@@H](CC(C)C)C(N)=O)[C@@H](C)CC) [compound 195] | − | − |  |
| 117 (FLIGRL-NH2; also: peptide conjugate) [compound 117] | − | − |  |
| 27 (LRGI[dC]F; not fully specified; printed as Leu-Arg-Gly-Ile-D-Cys-Phe) [compound 27] | − | − |  |
| 28 (LRGIC[dF]; not fully specified; printed as Leu-Arg-Gly-Ile-Cys-D-Phe) [compound 28] | − | − |  |
